The record followed here is ChEMBL document CHEMBL1201862, “PubChem BioAssay data set” (2004).

The term EC50 denotes the concentration that produces a half-maximal response. A word on the AC50: it is the midpoint of the concentration-response curve, whichever way the signal moves.

Assay [1] addresses T1, Protein Wnt-3a (Mus musculus, UniProt P27467). As to the kind of experiment: SAR analysis of small molecule antagonists of Gli-SUFU in a Wnt3a luminescent reporter assay. It counts as functional. Background: In a reporter assay the amount or activity of a reporter protein is the signal.
The nature of assay [2]: cytotoxicity in HEK-293T cells, dose response, cytotoxicity control for BCR NF-kB inhibitor project, luminescence, B-cell screen hits (AID 489021).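 Also: HEK-293T cells carrying an NF-kB luciferase reporter; cells exposed to compound for about 14 hours before viability readout.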 It counts as functional, cell-based.
For assay [3], the system named is HEK293. The assay is described as follows: cytotoxicity in HEK293T NF-kB-Luc cells, SAR follow-up, cytotoxicity control for NF-kB activator project, cell-based, resazurin fluorescence (AID 493251). It counts as functional. To be noted: Homo sapiens. In general terms: Alamar Blue is a resazurin reagent that responds to reducing activity.
A further assay concerns Jurkat. As to the kind of experiment: SAR Analysis of small molecule inhibitors of T-cell specific antigen receptor-induced NF-kB activation in a Jurkat cell line using a luminescence assay - Set 2. [Related pubchem assays (depositor defined):AID435003, AID435012, AID465]. It counts as functional, cell-based. The note with it: Homo sapiens.
Assay [4] deals with T2, Heat shock factor protein 1 (Mus musculus, UniProt P38532).
T2 sequence (P38532 whole entry): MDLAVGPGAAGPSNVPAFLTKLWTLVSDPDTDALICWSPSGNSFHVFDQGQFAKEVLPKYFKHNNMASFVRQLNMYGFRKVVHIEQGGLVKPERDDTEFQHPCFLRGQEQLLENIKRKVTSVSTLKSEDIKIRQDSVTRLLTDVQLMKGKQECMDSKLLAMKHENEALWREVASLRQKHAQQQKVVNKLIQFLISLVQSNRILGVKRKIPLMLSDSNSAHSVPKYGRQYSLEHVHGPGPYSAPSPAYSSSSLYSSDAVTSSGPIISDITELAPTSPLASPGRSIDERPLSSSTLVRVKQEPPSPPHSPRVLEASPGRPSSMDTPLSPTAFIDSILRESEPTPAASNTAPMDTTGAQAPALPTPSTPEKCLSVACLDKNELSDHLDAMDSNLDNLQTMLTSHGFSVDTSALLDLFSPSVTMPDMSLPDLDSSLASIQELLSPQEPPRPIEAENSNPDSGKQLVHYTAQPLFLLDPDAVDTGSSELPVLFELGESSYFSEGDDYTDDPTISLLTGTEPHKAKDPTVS
The assay is described as follows: inhibition of MG132-induced HSE-luciferase signal, confirmation, cell-based, NIH3T3, luminescence, dose retest (AID 2382).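 Also: NIH3T3 fibroblasts with HSF1-driven luciferase reporter stressed by proteasome inhibitor MG132; luminescence from HSF1-driven luciferase expression after 8 hours of MG132 stress.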 It counts as functional.

Assay [5] relates to HEK293. As to the kind of experiment: SAR Analysis of small molecule inhibitors of T-cell specific antigen receptor-induced NF-kB activation in a HEK-293T cell line using a luminescence assay - Set 2. [Related pubchem assays (depositor defined):AID435003, AID435012, AID489026]. It counts as functional, cell-based. The note with it: Homo sapiens.
In a further assay the target is DNA topoisomerase (Yersinia pestis, UniProt A0A2S9PM60). The assay is described as follows: Y. pestis Topo-I inhibitors, cleavage product readout, dose response, biochemical, cherry-pick (AID 588525).
DNA topoisomerase, sequence (A0A2S9PM60 whole entry): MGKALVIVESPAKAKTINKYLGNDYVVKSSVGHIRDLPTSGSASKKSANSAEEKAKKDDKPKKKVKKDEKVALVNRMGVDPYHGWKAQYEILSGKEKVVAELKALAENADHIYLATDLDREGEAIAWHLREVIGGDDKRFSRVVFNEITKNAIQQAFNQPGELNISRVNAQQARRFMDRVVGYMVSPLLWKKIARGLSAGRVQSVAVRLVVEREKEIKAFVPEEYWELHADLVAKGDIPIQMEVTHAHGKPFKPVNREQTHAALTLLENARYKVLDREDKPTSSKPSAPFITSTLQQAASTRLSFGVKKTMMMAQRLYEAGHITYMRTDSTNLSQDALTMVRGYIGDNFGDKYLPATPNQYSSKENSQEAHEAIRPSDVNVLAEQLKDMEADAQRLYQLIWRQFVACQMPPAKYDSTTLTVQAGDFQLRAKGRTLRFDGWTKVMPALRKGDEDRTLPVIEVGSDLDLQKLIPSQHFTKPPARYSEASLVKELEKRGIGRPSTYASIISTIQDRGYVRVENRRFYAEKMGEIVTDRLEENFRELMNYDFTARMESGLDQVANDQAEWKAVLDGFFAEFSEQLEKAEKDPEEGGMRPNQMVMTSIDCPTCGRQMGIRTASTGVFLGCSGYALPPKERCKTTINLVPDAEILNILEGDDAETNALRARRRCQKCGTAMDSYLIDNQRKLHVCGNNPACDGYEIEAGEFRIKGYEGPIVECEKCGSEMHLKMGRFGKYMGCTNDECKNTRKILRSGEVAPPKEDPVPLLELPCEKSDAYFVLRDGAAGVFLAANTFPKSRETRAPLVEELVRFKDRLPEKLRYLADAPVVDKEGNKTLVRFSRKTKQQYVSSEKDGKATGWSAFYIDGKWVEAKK
Assay [6] has as its system Candida albicans. As to the kind of experiment: C. albicans growth inhibition with fluconazole, dose response, antifungal resistance reversal project, CaCi-2 strain, Alamar Blue, dry powder, set 2 (AID 488930). It counts as functional, organism-based.
The target in assay [7] is T1, Protein Wnt-3a. The assay is described as follows: Wnt3a-driven reporter signaling inhibition, dose response, selectivity assay for Gli-SUFU antagonist project, Wnt-LIGHT cells, luminescence (AID 651570).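 Also: Wnt-LIGHT reporter cells stimulated with conditioned medium from Wnt3a-producing cells.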 It counts as functional. To be noted: read-out: IC50_Mean.
Assay [8] deals with Candida albicans. The assay is described as follows: growth inhibition of resistant C. albicans, dose response, CaCi-8 strain, fluconazole, dry powder, set 4 (AID 488950). It counts as functional, organism-based.
Assay [9] has as its system Candida albicans. The assay is described as follows: fluconazole resistance reversal in C. albicans, dose response, CaCi-2 strain, Alamar Blue, dry powder, set 4 (AID 488943). It counts as functional, organism-based.
For assay [10], the system named is Candida albicans. As to the kind of experiment: growth inhibition of azole-resistant C. albicans, dose response, CaCi-8 strain, Alamar Blue, dry powder, set 2 (AID 488909). It counts as functional, organism-based.
For assay [11], the system named is Candida albicans. As to the kind of experiment: Candida albicans growth inhibition, agent alone, dose response, counter-screen for reversing antifungal drug resistance, CaCi-2 strain, no fluconazole, dry powder, set 4 (AID 488932). It counts as functional, organism-based. (The purpose of a counterscreen is to sort out artefacts and off-target activity.)
In assay [12] the test system is HEK293. The assay is described as follows: inhibitors of LMP1-driven NF-kB reporter, dose response, cell-based, HEK293, luciferase, cherry-pick (AID 588343). It counts as functional. The note with it: Homo sapiens.

SMILES strings stand for the structures. Calls of active or inactive are those of the source.

T1 sequence (P27467 whole entry): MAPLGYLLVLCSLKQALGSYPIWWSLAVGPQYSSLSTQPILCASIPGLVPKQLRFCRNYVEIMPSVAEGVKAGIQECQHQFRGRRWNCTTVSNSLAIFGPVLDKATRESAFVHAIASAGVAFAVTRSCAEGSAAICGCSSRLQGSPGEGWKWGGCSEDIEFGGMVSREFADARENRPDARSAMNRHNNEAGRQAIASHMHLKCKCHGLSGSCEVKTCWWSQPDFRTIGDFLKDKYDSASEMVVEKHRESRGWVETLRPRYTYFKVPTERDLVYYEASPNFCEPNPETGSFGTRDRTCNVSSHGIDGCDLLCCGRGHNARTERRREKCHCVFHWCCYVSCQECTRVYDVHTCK

On to `CCOc1ccc(-c2nc(CSCC(=O)NC3CC3)c(C)o2)cc1`, for which the IC50 on Protein Wnt-3a [1] was > 21.8 µM (inactive); in assay [2] it was > 80 µM (inactive); in the assay with HEK293 [3], > 80 µM (inactive); with Jurkat it was > 79 µM (inactive); in the assay with HEK293 [5], > 80 µM (inactive). Moreover, in [4], the EC50 was 0.241 µM (active).
Turning to `Cc1cc(C(=O)Cn2nc(C(=O)O)c3ccccc3c2=O)c(C)n1-c1ccc(OC(F)F)cc1`, the AC50 at DNA topoisomerase is 4.1 µM (active).
Take `O=C(C1CCCCC1)N1CCN(c2ccnc3cc(Cl)ccc23)CC1`: the AC50 in the assay on Candida albicans [6] was 0.661 µM (active); with Candida albicans [8], 1.01 µM (active); with Candida albicans [9], 0.688 µM (active); in the assay with Candida albicans [10], 5.02 µM (active); with Candida albicans [11], 200 µM (active); with HEK293 [12], 12.5 µM (active). Besides, the IC50 on Protein Wnt-3a [7] is 10.4 µM (active).
